Assay results taken from patent publication US20200164026A1, “Intranasal Delivery of Cell Permeant Therapeutics” (The Trustees of Columbia University in the City of New York, priority 2010, published 2020).

Tested on: hippocampal neuronal cultures
Assay: Neuronal survival assay, 4-hydroxynonenal (HNE) mediated death
Format: cell-based, rat
Conditions: HNE 3 μM, Pen1-XBIR3 80 nM, 1 day
Source text: (Davidson, et al., J Neurosci 24 (45), 10040-10046 (2004)). Upon entry into the cell the disulfide linkage is broken by the reducing environment of the cytoplasm, releasing the peptide cargo and allowing it to act at its target. Functional efficacy of this construct was confirmed using hippocampal neuronal cultures that were subjected to 4-hydroxynonenal (HNE) mediated death, a caspase-9 dependent death. (Rabacchi, et al., Neurobiol Aging 25 (8), 1057-1066 (2004)). […] To ensure that a Pen1-peptide could be delivered to the brain, Pen1 was linked to a FITC-labeled control peptide and delivered to the striatum using convection enhanced delivery (CED). Brains were harvested 24 hr after delivery, sectioned, and imaged. […] Pent-XBIR3 was delivered to the striatum 1 hr prior to tMCAo using ICC. Animals were harvested at 24 hpr and immunostained for caspase-9 and c1-C6. […] Thus, caspase-9 activity was necessary for activation of caspase-6 in neuron soma and processes following a transient ischemic event in rats.
Rat Hippocampal cultures. […]
Neuronal survival assay. […] After 1 day of treatment cells number was quantified as previously described. […] Briefly, the cells were lysed in counting buffer and intact nuclei were counted using a hemocytometer. […]

## Pen1-XBIR3: BIR3 domain from XIAP, a specific caspase-9 inhibitor, disulfide-linked to Penetratin1 cell transduction peptide (SEQ ID NO: 10)
  neuronal death / survival: abrogated death
